Experimental findings from EP2292587A1, “PHARMACEUTICAL COMPOSITION FOR INHIBITING THE TRANSCRIPTION FACTOR INDUCIBLE BY HYPOXIA, MODULATORS OF PATHOLOGICAL PROCESSES OF ANGIOGENESIS, ONCOGENESIS, INFLAMMATION, APOPTOSIS, AND CELLULAR THERAPY” (Fundacion De La Comunidad Valenciana Centro De …, priority 2008, dated 2009) are described below.

In one assay the test system is JUNB. Briefly: selectivity luciferase assay, Hek 293-CRE-LUC. Format: cell-based. The note with it: 0-1 µM, 6 hours. The protocol:
The selectivity assays with the active compound FM19G11 were performed in white 96-well plates using the recombinant strains Hek 293-TRE-LUC and Hek 293-CRE-LUC which represent the transcriptional activity of transcription factors of the AP-1 complex. The luciferase assay for measuring transcriptional activity was performed using the kit Bright-Glo™ Luciferase Assay System (Promega, Inc., Madison, WI), following the instructions supplied by the manufacturer and the Hek 293-TRE-LUC and Hek 293-CRE-LUC lines contain the response elements of transcription factors of the AP-1 complex, specifically of c-FOS and JUNB, respectively. The Hek 293-TRE-LUC and Hek 293-CRE-LUC lines were provided by Dr. Rosa Farrás.

For a further assay, the system named is MLH1 and MSH6. The assay is described as follows: Western blot of mismatch repair proteins and acetyllysine in C17.2 neural stem cells. It is filed as cell-based, mouse. The note with it: 500 nM; for expression of the repair proteins (MMRs: MLH1, MSH6): normoxia or hypoxia. From the text: According to the results obtained, the C17.2 neural stem cell subjected to hypoxia experienced repression in the DNA repair (mismatch repair, MMR) system. […] The monoclonal anti MLH1 and MSH6 antibodies were used in the analysis, Nx referring to normoxia and Hx to hypoxia.
The monoclonal antibodies anti-acetyllysine, anti-MLH1 and MSH6 as well as against beta-actin used as a loading control were used in the analysis; wherein Nx refers to Normoxia and Hx to hypoxia.

In a further assay the test system is HCT116/p53-/- cells. The assay is described as follows: cell cycle distribution by flow cytometry, HCT116/p53-/-. It is filed as cell-based, human. The note with it: 0.5, 1, 5, 10 µM, 3 or 6 days. From the text:
It was investigated if the activation of DDR by FM19G11 caused a delay in the cycle progress through the G1/S phases in HCT116 tumor cells, as has been described for other DNA-damaging agents (.Lim, DS, Kim, ST, Xu, B, Maser, RS, Lin, J, Petrini, JH et al., (2000) ATM phosphorylates p95/nbs1 in an S-phase checkpoint pathway. Nature 404: 613-7.; Jazayeri, A, Falck, J, Lukas, C, Bartek, J, Smith, GC, Lukas, J et al., (2006) ATM- and cell cycle-dependent regulation of ATR in response to DNA double-strand breaks. Nat Cell Biol 8: 37-45; Liu, JS, Kuo, SR, Beerman, TA and Melendy, T, (2003) Induction of DNA damage responses by adozelesin is S phase-specific and dependent on active replication forks. Mol Cancer Ther 2: 41-7; Ranjan, P and Heintz, NH, (2006) S-phase arrest by reactive nitrogen species is bypassed by okadaic acid, an inhibitor of protein phosphatases PP1/PP2A. Free Radic Biol Med 40: 247-59.). The HCT116 p53+/+ and HCT116 p53-/- cells were exposed for 3 or 6 days to the carrier (DMSO) or to FM19G11 (0.5, 1, 5, 10 µM). […] (Figure 24).
A- The HCT116/p53+/+ cells and B-HCT116/p53-/- cells were exposed to different concentrations of FM19G11 (0.5, 1, 5, 10 µM) or carrier for 3 or 6 days to analyze the distribution of cells in the different cell cycle phases by means of flow cytometry. […]
For orientation: A flow cytometer gives signals particle by particle.

In another assay the target is T1, acetyltransferase p300 (Mus musculus, UniProt B2RWS6).
T1 construct: endogenous in cells; host or cells: C17.2 mouse neural stem cells
Briefly: HAT Colorimetric Assay after anti-p300 immunoprecipitation, C17.2 cells. It is filed as cell-based. The note with it: regardless of the percentage of oxygen. The protocol:
Since FM19G11 was capable of affecting the degree of acetylation of histone H3 and therefore the conformation of chromatin, it was evaluated if FM19G11 favored the transfer of acetyl groups to histone H3 or, on the contrary, prevented histone H3 from being deacetylated. Both effects would cause an increase of the degree of acetylation of histone H3. Immunoprecipitation assays were performed with an antibody recognizing acetyltransferase p300 and then assays for measuring the acetyltransferase activity by means of using the kit "HAT Colorimetric Assay" (BioVision) were carried out. This method consists of detecting NADH since peptide acetylation causes the release of the free form of Coenzyme A, which serves as an essential coenzyme for producing NADH.
The protein extracts were previously immunoprecipitated with an anti-p300 antibody and the acetyltransferase activity measured by the detection of NADH. The evaluation of the histone deacetylase (HDAC) activity (Figure 34 B) was carried out with protein extracts of HeLa cells treated with different concentrations of FM19G11. As a positive control, a fixed concentration of TSA (1 µM) was included and extracts of untreated cells were used as a control. The experiments were carried out following the instructions of the Biomol kit for detecting histone deacetylase activity (HDAC Fluorimetric Cellular Activity Assay, Biomol, Cat. No. AK-503). […]

For assay [1], the system named is Sox2, Oct4, Nanog, TGF-alpha, Notch1. The assay is described as follows: expression of undifferentiated state markers in epSPCs (sqPCR, Western blot). Format: cell-based, rat. The procedure: The primary culture of adult spinal cord ependymal neural progenitors (epSPC) was performed according to the conditions already set forth in Example 35.1.
Detection of the transcriptional and transductional expression levels of genes responsible for maintaining the undifferentiated state, Sox2, Oct4, Nanog, TGF-alpha: Total RNA was isolated using the commercial kit RNAeasy (Qiagen) and following the manufacturer's instructions. 1 µg of total RNA of each sample was retrotranscribed using the commercial kit Reverse Transcription Reagent (Applied Biosystem). The semiquantitative polymerase chain reaction (sqPCR) was carried out using the primers detailed below, for the amplification of the messenger RNAs of Sox2, Oct4, Nanog, TGF-alpha and GAPDH. The sqPCR was developed in an Eppendorf thermal cycler in a final volume of 50 µl, using 1 U of Taq Polymerase, 40 ng of cDNA (equivalent amount of total RNA), and 300 nM of each primer. The program chosen for the amplification was: [95°C, 3 min] x1, [55°C, 30 sec, 72°C, 5 min, 95°C 30 sec] x 35 and 72°C 10 min. The expression levels were viewed in a 1% agarose gel in 1x TAE buffer stained with ethidium bromide. The changes of expression due to the loading difference were corrected by the differential expression of the GAPDH constitutive expression gene. The experiments were performed in triplicate (with cells from three different rats).
The levels of proteins of the undifferentiated state markers Sox2, Oct4, Nanog and Notch1 were determined by immunological analysis (Western Blot) following the methodology described in Example 35.1. The primary antibodies for the detection of Sox2, Oct4, Nanog and Notch1 were acquired from Abcam (UK) and the expression of beta-actin (antibody acquired in Sigma Aldrich Co., UK) served as a loading control.
Background: A western blot detects proteins with antibodies after separation by electrophoresis.

Entries after “also recorded” stand apart in the source; their conditions may differ.

T1 sequence (B2RWS6 whole entry): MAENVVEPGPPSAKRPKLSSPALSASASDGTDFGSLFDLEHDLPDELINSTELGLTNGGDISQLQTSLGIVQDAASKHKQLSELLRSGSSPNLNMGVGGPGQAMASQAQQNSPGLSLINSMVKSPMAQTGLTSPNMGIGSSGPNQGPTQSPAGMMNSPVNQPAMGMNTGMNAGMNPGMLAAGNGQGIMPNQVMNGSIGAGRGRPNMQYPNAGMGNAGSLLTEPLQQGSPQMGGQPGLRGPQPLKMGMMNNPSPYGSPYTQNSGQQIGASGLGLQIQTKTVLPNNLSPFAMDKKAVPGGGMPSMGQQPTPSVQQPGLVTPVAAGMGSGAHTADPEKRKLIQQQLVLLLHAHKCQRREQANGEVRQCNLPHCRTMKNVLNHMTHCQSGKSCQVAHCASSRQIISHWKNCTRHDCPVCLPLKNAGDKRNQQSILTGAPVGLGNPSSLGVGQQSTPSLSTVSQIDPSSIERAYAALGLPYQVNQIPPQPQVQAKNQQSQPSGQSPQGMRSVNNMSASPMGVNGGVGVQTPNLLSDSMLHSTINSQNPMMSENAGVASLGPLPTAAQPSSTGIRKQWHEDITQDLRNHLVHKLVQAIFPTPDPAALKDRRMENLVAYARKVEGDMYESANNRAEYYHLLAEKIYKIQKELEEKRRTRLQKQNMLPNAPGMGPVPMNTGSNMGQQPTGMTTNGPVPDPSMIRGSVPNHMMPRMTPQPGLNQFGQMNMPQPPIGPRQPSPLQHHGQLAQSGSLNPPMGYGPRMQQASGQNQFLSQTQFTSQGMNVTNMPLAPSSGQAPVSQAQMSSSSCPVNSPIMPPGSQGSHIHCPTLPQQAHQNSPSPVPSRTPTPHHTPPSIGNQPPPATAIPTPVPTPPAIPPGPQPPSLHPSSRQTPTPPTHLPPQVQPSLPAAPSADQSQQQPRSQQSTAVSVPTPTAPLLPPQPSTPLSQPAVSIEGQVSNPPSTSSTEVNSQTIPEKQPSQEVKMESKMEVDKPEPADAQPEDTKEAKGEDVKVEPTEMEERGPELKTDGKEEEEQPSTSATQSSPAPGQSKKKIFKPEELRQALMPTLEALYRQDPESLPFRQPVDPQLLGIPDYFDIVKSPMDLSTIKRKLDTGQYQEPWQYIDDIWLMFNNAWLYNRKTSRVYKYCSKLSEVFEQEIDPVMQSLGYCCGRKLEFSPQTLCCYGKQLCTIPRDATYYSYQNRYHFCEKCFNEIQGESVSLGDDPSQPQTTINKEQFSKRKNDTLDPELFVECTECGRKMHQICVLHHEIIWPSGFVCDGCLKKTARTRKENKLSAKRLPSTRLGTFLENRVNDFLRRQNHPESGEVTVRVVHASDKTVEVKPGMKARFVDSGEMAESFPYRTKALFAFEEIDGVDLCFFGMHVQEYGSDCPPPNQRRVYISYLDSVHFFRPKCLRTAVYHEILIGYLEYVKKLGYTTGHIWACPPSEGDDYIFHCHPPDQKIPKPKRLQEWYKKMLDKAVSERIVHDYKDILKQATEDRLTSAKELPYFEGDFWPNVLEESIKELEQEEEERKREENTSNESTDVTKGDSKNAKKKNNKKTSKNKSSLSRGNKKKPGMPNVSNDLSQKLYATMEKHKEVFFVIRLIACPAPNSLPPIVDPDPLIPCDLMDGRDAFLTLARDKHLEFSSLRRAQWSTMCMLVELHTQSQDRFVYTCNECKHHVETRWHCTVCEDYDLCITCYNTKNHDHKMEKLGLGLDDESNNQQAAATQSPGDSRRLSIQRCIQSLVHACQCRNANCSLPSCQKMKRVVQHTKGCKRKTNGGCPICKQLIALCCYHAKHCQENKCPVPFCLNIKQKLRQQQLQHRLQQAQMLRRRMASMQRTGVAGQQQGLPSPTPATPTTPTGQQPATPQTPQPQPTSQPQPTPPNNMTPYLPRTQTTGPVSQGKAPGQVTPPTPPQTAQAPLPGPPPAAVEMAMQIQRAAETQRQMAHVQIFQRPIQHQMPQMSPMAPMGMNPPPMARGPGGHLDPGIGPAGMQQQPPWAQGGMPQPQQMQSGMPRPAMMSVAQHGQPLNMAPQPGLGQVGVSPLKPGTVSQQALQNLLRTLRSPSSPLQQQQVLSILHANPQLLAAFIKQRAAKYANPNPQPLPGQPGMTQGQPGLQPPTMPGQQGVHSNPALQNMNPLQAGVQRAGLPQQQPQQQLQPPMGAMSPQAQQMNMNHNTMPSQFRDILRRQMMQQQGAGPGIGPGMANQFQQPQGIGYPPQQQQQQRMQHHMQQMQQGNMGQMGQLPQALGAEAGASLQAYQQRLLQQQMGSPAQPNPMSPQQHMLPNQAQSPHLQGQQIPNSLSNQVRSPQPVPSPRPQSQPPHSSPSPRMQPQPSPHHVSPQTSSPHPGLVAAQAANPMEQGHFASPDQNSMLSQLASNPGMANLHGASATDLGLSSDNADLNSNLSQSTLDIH

On to `Cc1ccc(C(=O)COC(=O)c2cccc(NC(=O)c3ccc([N+](=O)[O-])cc3[N+](=O)[O-])c2)cc1` [FM19G11, 2-oxo-2-(p-tolyl)ethyl 3-((2,4-dinitro)benzamido)benzoate], for which the “transcriptional levels of Hek 293-CRE-LUC” value in the assay on JUNB is given as “not affected in any case”. Also, in the assay with MLH1 and MSH6, the “overall degree of acetylation of different proteins (anti-acetyllysine)” value was “increases the overall degree of acetylation” and the “expression of the repair proteins (MMRs: MLH1, MSH6)” value is given as “capable of recovering the expression of the MMRs more effectively than TSA; also recorded: recovered”. In the assay with MLH1 and MSH6 (listed as 19G11), the “expression of the repair proteins (MMRs: MLH1, MSH6)” value is recorded as “capable of reestablishing the expression”. For the same compound, the “G1/S phase cycle arrest” value in the assay on HCT116/p53-/- cells is on record as “did not cause a G1/S phase cycle blocking”. The “acetyltransferase activity of the immunoprecipitated fraction” value on acetyltransferase p300 is “increase of the acetyltransferase activity”. In addition, the “messenger RNA of Sox2 and Oct4 and their target genes Nanog and TGF-α” value in assay [1] (500 nM, 48 hours, 1% O2) is “down-regulation”. For the same compound, the “expression of Sox2, Oct4, Nanog and Notch1” value in assay [1] (500 nM, 48 hours, normoxic (~20% O2)) is “significantly induces”. In addition, the “expression of both proteins, Sox2 and Oct4” value in assay [1] (increasing concentrations, 1% O2) is “inhibits in a dose-dependent manner”. For the same compound, in assay [1] (physical hypoxic conditions), the “expression of the two isoforms of HIFα, p300, Sox2, Oct3/4 in ependymal cells” value was “decrease”.
